Data published in patent US12029725B2 (priority 2019, dated 2024).
“Also recorded” adds a separate entry of the source. Where two headings read alike, the source gives them in different places.

Legend:
[1] = Pharmacokinetics of RTX after intra-articular injection in the Phase 1b study; assay type: in vivo, human; conditions: for Number of RTX subjects with quantifiable PK / Number of subjects with BQL of RTX: 6 subjects with PK measured; for Cmax / AUC(0-t): human, in vivo, other: intra-articular injection
[2] = tested on: subjects with moderate to severe osteoarthritis of the knee; conditions: for Procedure-associated pain (post-procedural pain and injection site pain), patients reporting: RTX patients; for Procedure-associated pain reported as mild / Procedure-associated pain reported as moderate: RTX treated patients
[3] = tested on: pain due to moderate to severe osteoarthritis of the knee; experiment: Phase 1b double-blind study of intra-articular resiniferatoxin versus placebo: efficacy (WOMAC and NPRS pain scores); assay type: in vivo, human; conditions: for Patient reported WOMAC A1 and NPRS pain scores: all dose levels
Protocol: The study, described as “Phase 1b double-blind study assesses safety and preliminary efficacy of intra-articular administration of resiniferatoxin versus placebo for the treatment of pain due to moderate to severe osteoarthritis of the knee,” was performed.
Subjects with moderate to severe osteoarthritis diagnosed based on ACR diagnostic criteria and X-ray imaging were enrolled in a phase 1b double-blind study to assess the safety, tolerability and preliminary efficacy of intra-articular administration of resiniferatoxin or placebo for the treatment of moderate to severe pain due to osteoarthritis of the knee. Patients met the following criteria: (1) baseline pain score in the index knee (WOMAC pain subscale question A1) of ≥5 but ≤9 during four weeks prior to enrollment; (2) mean NPRS score of ≥5 but ≤9 during 8 of 10 days prior to enrollment; and (3) pain lasted for at least 6 months prior to enrollment.
As of August 2019, the enrollment of all planned dose level cohorts was completed. 40 patients have enrolled in these dose-escalation cohorts, 30 receiving RTX and 10 receiving placebo (multicenter, randomized, double-blind, placebo controls). In each cohort, six patients received intraarticular RTX and two received a saline control (placebo arm). 69% are female and 31% are male. The median age is 62 (range 44-83), and the baseline NPRS A1 score was mean 6.5 (S.D. 1.5).
The patients were treated with a one-time intraarticular dose of resiniferatoxin (RTX) or saline placebo at escalating dose level cohorts of 5 μg, 12.5 μg, 20 μg and 30 μg in 5 or 10 mL in dose escalation cohorts. For each 8-patient cohort, the first patient was considered a sentinel patient and received open-label drug. Upon confirmation of safety in the sentinel patient, the remaining 7 patients in the cohort were enrolled in a blinded fashion, 2 patients receiving placebo and 5 patients receiving RTX. After confirmation of safety at each dose level, the next higher dose level was opened for enrollment. Patients were followed for safety and efficacy over a 12-week period. Patients had the option to provide additional follow-up to 52 weeks. Efficacy was assessed using the patient reported WOMAC pain scores and NPRS pain scores. As per protocol, the treatment assignment could be unblinded at week 12.

[4] = 30 μg, Cohort 6, 30 μg/5 or 10 ml, subject with quantifiable PK

C=C(C)[C@]12C[C@@H](C)[C@@]34O[C@](Cc5ccccc5)(O[C@@H]1[C@@H]3C=C(COC(=O)Cc1ccc(O)c(OC)c1)C[C@]1(O)C(=O)C(C)=C[C@@H]41)O2 [RTX, resiniferatoxin]
Number of RTX subjects with quantifiable PK ([1]; Cohort 1, 5 μg/5 ml): 1
Number of subjects with BQL of RTX ([1]; Cohort 1, 5 μg/5 ml): 5
Number of RTX subjects with quantifiable PK ([1]; Cohort 4, 12.5 μg/5 ml): 0
Number of subjects with BQL of RTX ([1]; Cohort 4, 12.5 μg/5 ml): 6
Number of RTX subjects with quantifiable PK ([1]; Cohort 4a, 12.5 μg/10 ml): 1
Number of subjects with BQL of RTX ([1]; Cohort 4a, 12.5 μg/10 ml): 5
Number of RTX subjects with quantifiable PK ([1]; Cohort 5, 20 μg/5 ml): 2
Number of subjects with BQL of RTX ([1]; Cohort 5, 20 μg/5 ml): 4
Number of RTX subjects with quantifiable PK ([1]; Cohort 6, 30 μg/5 or 10 ml): 1
Number of subjects with BQL of RTX ([1]; Cohort 6, 30 μg/5 or 10 ml): 5
Detectability of RTX (pharmacokinetic data) ([1]; all PK cohorts, intra-articular injection): undetectable in most patients
Cmax ([1]; 5 μg, Cohort 1, 5 μg/5 ml, subject with quantifiable PK): 0.121 ng/mL
AUC(0-t) ([1]; 5 μg, Cohort 1, 5 μg/5 ml, subject with quantifiable PK, read-out: AUC (0-6 hr)): 0.509 ng·h/mL
Cmax ([1]; 12.5 μg, Cohort 4a, 12.5 μg/10 ml, subject with quantifiable PK): 0.103 ng/mL
AUC(0-t) ([1]; 12.5 μg, Cohort 4a, 12.5 μg/10 ml, subject with quantifiable PK, read-out: AUC (0-6 hr)): 0.146 ng·h/mL
Cmax ([1]; 20 μg, Cohort 5, 20 μg/5 ml, first subject with quantifiable PK): 0.071 ng/mL
AUC(0-t) [1, 4]: 0.0854 ng·h/mL
Cmax [1, 4]: 0.0878 ng/mL
DMC assessment ([2]; Cohort 1, 5 μg): No DLTs
Notable AE's ([2]; Cohort 1, 5 μg): None
DMC assessment ([2]; Cohort 2, 12.5 μg): No DLTs
Notable AE's ([2]; Cohort 2, 12.5 μg): None
DMC assessment ([2]; Cohort 3, 12.5 μg (in 10 ml)): No DLTs
Notable AE's ([2]; Cohort 3, 12.5 μg (in 10 ml)): None
DMC assessment ([2]; Cohort 4, 20 μg): No DLTs
Notable AE's ([2]; Cohort 4, 20 μg): None
DMC assessment ([2]; Cohort 5, 30 μg): No DLTs
Notable AE's ([2]; Cohort 5, 30 μg): None
TEAE Areflexia, Mild: frequency ([2]; RTX All Cohorts (N = 57)): (3.5%)
TEAE Areflexia, Mild: number of subjects ([2]; RTX All Cohorts (N = 57)): 2
TEAE Areflexia, Moderate: frequency ([2]; RTX All Cohorts (N = 57)): (3.5%)
TEAE Areflexia, Moderate: number of subjects ([2]; RTX All Cohorts (N = 57)): 2
TEAE Arthralgia, Mild: frequency ([2]; RTX All Cohorts (N = 57)): (7.0%)
TEAE Arthralgia, Mild: number of subjects ([2]; RTX All Cohorts (N = 57)): 4
TEAE Arthralgia, Moderate: frequency ([2]; RTX All Cohorts (N = 57)): (1.8%)
TEAE Arthralgia, Moderate: number of subjects ([2]; RTX All Cohorts (N = 57)): 1
TEAE EOG QTc prolonged, Mild: frequency ([2]; RTX All Cohorts (N = 57)): (5.3%)
TEAE EOG QTc prolonged, Mild: number of subjects ([2]; RTX All Cohorts (N = 57)): 3
TEAE Headache, Mild: frequency ([2]; RTX All Cohorts (N = 57)): (5.3%)
TEAE Headache, Mild: number of subjects ([2]; RTX All Cohorts (N = 57)): 3
TEAE Hypertension, Mild: frequency ([2]; RTX All Cohorts (N = 57)): (7.0%)
TEAE Hypertension, Mild: number of subjects ([2]; RTX All Cohorts (N = 57)): 4
TEAE Hypertension, Moderate: frequency ([2]; RTX All Cohorts (N = 57)): (7.0%)
TEAE Hypertension, Moderate: number of subjects ([2]; RTX All Cohorts (N = 57)): 4
TEAE Hypoesthesia, Mild: frequency ([2]; RTX All Cohorts (N = 57)): (8.8%)
TEAE Hypoesthesia, Mild: number of subjects ([2]; RTX All Cohorts (N = 57)): 5
TEAE Nausea, Mild: frequency ([2]; RTX All Cohorts (N = 57)): (31.6%)
TEAE Nausea, Mild: number of subjects ([2]; RTX All Cohorts (N = 57)): 18
TEAE Nausea, Moderate: frequency ([2]; RTX All Cohorts (N = 57)): (3.5%)
TEAE Nausea, Moderate: number of subjects ([2]; RTX All Cohorts (N = 57)): 2
TEAE Procedural pain, Mild: frequency ([2]; RTX All Cohorts (N = 57)): (64.9%)
TEAE Procedural pain, Mild: number of subjects ([2]; RTX All Cohorts (N = 57)): 37
TEAE Procedural pain, Moderate: frequency ([2]; RTX All Cohorts (N = 57)): (26.3%)
TEAE Procedural pain, Moderate: number of subjects ([2]; RTX All Cohorts (N = 57)): 15
TEAE Vomiting, Mild: frequency ([2]; RTX All Cohorts (N = 57)): (14.0%)
TEAE Vomiting, Mild: number of subjects ([2]; RTX All Cohorts (N = 57)): 8
TEAE Vomiting, Moderate: frequency ([2]; RTX All Cohorts (N = 57)): (3.5%)
TEAE Vomiting, Moderate: number of subjects ([2]; RTX All Cohorts (N = 57)): 2
Dose-limiting toxicities ([2]; all cohorts): No dose-limiting toxicities
Maximum tolerated dose ([2]; all cohorts): not identified
Relationship between adverse events and dose ([2]; all cohorts): no apparent relationship
Procedure-associated pain (post-procedural pain and injection site pain), patients reporting ([2]; all cohorts): 91%
Procedure-associated pain reported as mild ([2]; all cohorts): 65%
Procedure-associated pain reported as moderate ([2]; all cohorts): 26%
Dose-limiting toxicities ([2]; dose escalation cohorts (N=40)): No dose-limiting toxicities
Maximum tolerated dose ([2]; dose escalation cohorts (N=40)): not identified
Relationship between adverse events and dose ([2]; dose escalation cohorts (N=40)): no apparent relationship
Procedure-associated pain (post-procedural pain and injection site pain), patients reporting ([2]; dose escalation cohorts (N=40)): 100%
Procedure-associated pain reported as mild ([2]; dose escalation cohorts (N=40)): 55%
Procedure-associated pain reported as moderate ([2]; dose escalation cohorts (N=40)): 45%
Adverse events of interest ([2]; initial results, any dose group): nor adverse events of interest noted
Dose limiting toxicities (DLTs) ([2]; initial results, any dose group, to date): No dose limiting toxicities
Pain at walking (10 point WOMAC pain scale), mean pain score lower versus control ([3]; 5 μg RTX, Day 84): 4.7 points
WOMAC A-C pain index, least squares mean difference versus placebo (MMRM) ([3]; 12.5 μg dose, 12 weeks, p=0.016, N=6): −14.20
WOMAC A1 score, least squares mean difference versus placebo (MMRM) ([3]; 12.5 μg dose, 12 weeks, p=0.029, N=6): −2.70
NPRS score, least squares mean difference versus placebo (MMRM) ([3]; 12.5 μg dose, 12 weeks, p=0.051, N=6): −2.29
Weekly average NPRS pain score, mean change (standard deviation) from baseline to week 12 ([3]; Cohort 4, 12.5 μg/5 ml, FIG. 2): −5.30 (1.94)
Weekly average WOMAC question A1, mean change (standard deviation) from baseline to week 12 ([3]; Cohort 4, 12.5 μg/5 ml, FIG. 3): −5.67 (1.51)
Patient reported WOMAC A1 and NPRS pain scores ([3]; all cohorts incl. volume and dose expansion cohorts): reduction
Improvements in patients of all dose groups ([3]; all dose groups, ongoing trial): rapid and sustainable improvements
Patient reported WOMAC A1 and NPRS pain scores ([3]; dose escalation cohorts (N=40), available unblinded data): reduction
Sustained clinical benefits / pain reduction sustained over time ([3]; lowest dose (5 μg), determined at 84 days): sustained clinical benefits; also recorded: sustained over time
Onset of pain relief ([3]; lowest dose tested, single 5 μg RTX injection into the knee joint): day following injection; also recorded: the day following drug administration
Patients reporting positive clinical benefits in pain reduction ([3]; patients treated with the active drug, to date): a majority
Patients achieving >70% reduction in pain versus baseline, NPRS score ([3]; pooled RTX-treated patients): 41%
Patients achieving >70% reduction in pain versus baseline, WOMAC A1 score ([3]; pooled RTX-treated patients): 54%
Weekly average NPRS pain score, change from baseline to week 12, difference versus pooled placebo ([3]; week 12, range over dose level cohorts): −0.34 to −2.29
WOMAC question A1 (pain on walking on flat surface), least squares mean difference in change from baseline relative to placebo ([3]; week 12, range over dose level cohorts, 9 placebo, 28 RTX): −0.38 to −2.70 points
